Laboratory results reported in patent publication US4968539A, “Liquid crystal membrane” (Lion Corporation, priority 1987, dated 1990).
Where two headings read alike, the source gives them in different places. One block for each compound: values may come before it.

Assays:
[1] = Amount of acetaminophen permeated through hairless rat skin with membrane, two-chamber diffusion cell; type: in vitro ADME, WBN/Kob hairless rats
Procedure: The skin of the abdomen of WBN/Kob hairless rats ("Saitama" experimental animal) was taken under anesthesia (60 mg/kg pentobarbital, I.P.). A membrane sample prepared in the same manner as that of Example 3 was applied to the corneous layer-side of the skin specimens and they were placed in a glass two-chamber diffusion cell. 10% aqueous ethanol solution containing 2.4% of acetaminophen dissolved therein was placed in a donor-side chamber thereof and a phosphate buffer solution (pH 7.4) was placed in a receiver-side chamber. Increase in acetaminophen concentration in the receiver-side chamber with time was determined by HPLC.

[2] = plaster of clonidine; American Heart Journal, 217-222, July (1984); cited from earlier work
in vivo = assay: in vivo; parameters: species or system white rabbits; conditions: rabbit
Procedure: (§1) Hair was removed from the abdomen of a white rabbits weighing 2.0 to 2.5 kg with an electric clipper and the abdomen was then shaved with an electric razor carefully so as not to hurt the skin. A glass cell kept at a constant temperature by circulation of warm water was fixed thereon with a quick adhesive (Alon Alpha® of Toa Gosei Co.) through a membrane sample.
(§2) A drug solution was placed in the glass cell and the concentration of the drug in the blood was determined at time intervals over 48 h. In this experiment, the blood sample was taken from the ear vein of the rabbit at given time intervals and the drug concentration was analyzed according to liquid chromatography.
(§3) The polymer membrane and the drug solution used in this experiment were prepared as follows: in the example of the present invention, a polypropylene membrane (Celgard® 2402 having a port diameter of 0.02 μm and porosity of 38%) was immersed in 15% or 20% solution of polyoxyethylene(3 mol) trimethylolpropane tristearate (TPS-303® of Nippon Emulsion Co.) in chloroform for one hour and then air-dried to obtain the membrane. The drug solution used in this example was 50% aqueous N-methyl-2-pyrrolidone solution further containing 0.01 g/ml of indomethacin.
In a comparative example, about 1 wt.% of indomethacin was mixed in 100 parts by weight of an ointment base comprising 40% of ethyl alcohol, 58.4% of water, 1.5% of a polycarboxylic acid (Carbopol 940® of Goodrich Chemical Co.) and 0.1% of triethanolamine to prepare an ointment. 3 g of the ointment was placed in the constant temperature glass cell. No polymer membrane was used.

[3] = Ketoprofen concentration in the blood after application to rabbit abdomen; type: in vivo, white rabbits
Procedure: as §1, §2, §3
A change of the concentration of ketoprofen in the blood was investigated with the same polymer membrane in the same manner as those of Example 6 except that 3 ml of 30% aqueous ethanol solution in which 0.01 g/ml of ketoprofen had been suspended was used.

[4] = Cumulative amount of nitroglycerin permeated through hairless rat skin, two-chamber diffusion cell; type: in vitro ADME; conditions: 38° C.
Procedure: The same membrane sample as that of Example 2 and the same skin of hairless rat as that of Example 3 were mounted in the glass 2-chamber diffusion cell in the same manner as described above. 0.1% aqueous nitroglycerin solution was placed in the donor-side chamber and a phosphate buffer solution (pH 7.4) was placed in the receiver chamber. An increase of the concentration of nitroglycerin in the receiver chamber with time was determined by HPLC. As a control, only the skin free from the sample membrane was used in the experiment of the permeation of nitroglycerin through the skin. The experiment was conducted at 38° C.

[5] = rabbit, blood, topical or ocular, 32° C., read-out: Concentration of drug in blood
[6] = rabbit, blood, topical or ocular, 38° C., read-out: Concentration of drug in blood

Amount of drug permeated through the skin ([1]; 32° C., 2 hr): 0 μg/cm^2 | Amount of drug permeated through the skin ([1]; 32° C., 4 hr): 0 μg/cm^2 | Amount of drug permeated through the skin ([1]; 32° C., 12 hr): 0 μg/cm^2 | Amount of drug permeated through the skin ([1]; 32° C., 24 hr): 2 μg/cm^2 | Amount of drug permeated through the skin ([1]; 32° C., 36 hr): 5 μg/cm^2 | Amount of drug permeated through the skin ([1]; 38° C., 2 hr): 1 μg/cm^2 | Amount of drug permeated through the skin ([1]; 38° C., 4 hr): 3 μg/cm^2 | Amount of drug permeated through the skin ([1]; 38° C., 12 hr): 60 μg/cm^2 | Amount of drug permeated through the skin ([1]; 38° C., 24 hr): 170 μg/cm^2 | Amount of drug permeated through the skin ([1]; 38° C., 36 hr): 330 μg/cm^2
Structure (SMILES): CC(=O)Nc1ccc(O)cc1 [acetaminophen]

Structure (SMILES): Clc1cccc(Cl)c1N=C1NCCN1 [clonidine]
Time to attain an effective concentration in the blood [2]: three

Concentration of drug in blood (in vivo; 360 min): 0 ng/mL | Concentration of drug in blood (in vivo; 2880 min): 0 ng/mL | Concentration of drug in blood (in vivo; topical or ocular, 6 h): 22 ng/mL | concentration at 6 h (in vivo; topical or ocular, Concentration of drug in blood): 20 ng/mL
Structure (SMILES): COc1ccc2c(c1)c(CC(=O)O)c(C)n2C(=O)c1ccc(Cl)cc1 [indomethacin]

Structure (SMILES): CC(C(=O)O)c1cccc(C(=O)c2ccccc2)c1 (stereo not shown) [ketoprofen]
Concentration of drug in blood ([3]; 32° C., 6 hr): 0 ng/mL | concentration at 24 h [3, 5]: 18 ng/mL | concentration at 48 h [3, 5]: 17 ng/mL | concentration at 6 h ([3]; rabbit, blood, topical or ocular, 38° C., 6 hr, read-out: Concentration of drug in blood): 740 ng/mL | concentration at 24 h [3, 6]: 410 ng/mL | concentration at 48 h [3, 6]: 300 ng/mL

Structure (SMILES): O=[N+]([O-])OCC(CO[N+](=O)[O-])O[N+](=O)[O-] [nitroglycerin]
Cumulative amount of permeated nitroglycerin ([4]; With polymer membrane of the present invention, 2 h): 26 μg/cm^2 | Cumulative amount of permeated nitroglycerin ([4]; With polymer membrane of the present invention, 4 hr): 92 μg/cm^2 | Cumulative amount of permeated nitroglycerin ([4]; With polymer membrane of the present invention, 6 hr): 185 μg/cm^2 | Cumulative amount of permeated nitroglycerin ([4]; With polymer membrane of the present invention, 8 hr): 274 μg/cm^2 | Cumulative amount of permeated nitroglycerin ([4]; With polymer membrane of the present invention, 10 hr): 365 μg/cm^2 | Cumulative amount of permeated nitroglycerin ([4]; Without polymer membrane (skin only), 2 h): 8 μg/cm^2 | Cumulative amount of permeated nitroglycerin ([4]; Without polymer membrane (skin only), 4 hr): 44 μg/cm^2 | Cumulative amount of permeated nitroglycerin ([4]; Without polymer membrane (skin only), 6 hr): 101 μg/cm^2 | Cumulative amount of permeated nitroglycerin ([4]; Without polymer membrane (skin only), 8 hr): 154 μg/cm^2 | Cumulative amount of permeated nitroglycerin ([4]; Without polymer membrane (skin only), 10 hr): 218 μg/cm^2
